One block for each compound: values may come before it. Activity calls are given as the source filed them.
Legend:
[1] = target: T1, Sentrin-specific protease 7 (Homo sapiens, UniProt Q9BQF6); type: functional;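 note: Luminescence-based dose-response confirmation of ultra-high-throughput screening hits, measuring inhibition of SENP7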
T1 sequence (Q9BQF6 whole entry): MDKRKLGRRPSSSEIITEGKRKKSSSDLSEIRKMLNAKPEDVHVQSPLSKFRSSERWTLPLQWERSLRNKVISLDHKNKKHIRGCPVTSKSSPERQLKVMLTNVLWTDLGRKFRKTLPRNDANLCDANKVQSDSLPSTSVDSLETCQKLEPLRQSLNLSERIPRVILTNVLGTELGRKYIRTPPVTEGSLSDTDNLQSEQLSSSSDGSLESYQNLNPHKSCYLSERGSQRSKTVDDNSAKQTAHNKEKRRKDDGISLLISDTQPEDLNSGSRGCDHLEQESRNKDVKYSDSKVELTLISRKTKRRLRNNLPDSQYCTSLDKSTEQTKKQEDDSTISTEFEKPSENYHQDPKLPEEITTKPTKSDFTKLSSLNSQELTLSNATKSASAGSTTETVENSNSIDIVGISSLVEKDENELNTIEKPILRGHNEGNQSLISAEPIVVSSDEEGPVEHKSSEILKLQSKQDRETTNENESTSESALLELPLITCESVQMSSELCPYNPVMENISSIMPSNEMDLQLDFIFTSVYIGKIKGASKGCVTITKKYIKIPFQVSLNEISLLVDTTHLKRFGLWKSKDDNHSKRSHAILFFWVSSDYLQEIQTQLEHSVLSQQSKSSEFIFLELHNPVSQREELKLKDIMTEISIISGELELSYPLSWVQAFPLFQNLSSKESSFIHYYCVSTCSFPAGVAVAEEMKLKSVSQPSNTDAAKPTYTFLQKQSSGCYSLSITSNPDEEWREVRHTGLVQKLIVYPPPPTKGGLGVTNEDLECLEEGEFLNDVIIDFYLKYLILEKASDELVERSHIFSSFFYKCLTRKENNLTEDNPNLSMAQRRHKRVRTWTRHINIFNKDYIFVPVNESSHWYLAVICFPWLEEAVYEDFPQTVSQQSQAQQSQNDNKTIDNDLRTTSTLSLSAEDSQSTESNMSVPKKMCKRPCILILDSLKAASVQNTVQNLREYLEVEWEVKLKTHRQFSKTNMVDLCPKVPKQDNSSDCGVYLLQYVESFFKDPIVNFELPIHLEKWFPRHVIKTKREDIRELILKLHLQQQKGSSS

[2] = target: T2, Sentrin-specific protease 8 (Homo sapiens, UniProt Q96LD8); type: functional
T2 sequence (Q96LD8 whole entry): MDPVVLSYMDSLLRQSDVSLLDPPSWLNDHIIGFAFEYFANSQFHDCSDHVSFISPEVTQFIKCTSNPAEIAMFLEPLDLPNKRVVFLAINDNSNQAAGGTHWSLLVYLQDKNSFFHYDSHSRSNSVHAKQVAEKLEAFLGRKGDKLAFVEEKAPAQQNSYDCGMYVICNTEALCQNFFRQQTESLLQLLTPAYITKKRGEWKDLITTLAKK

[3] = target: T2, Sentrin-specific protease 8; type: functional; remark: listed apart in the source
[4] = target: T3, Caspase-3 (Homo sapiens, UniProt P42574); type: functional;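 note: Dose-response selectivity test against caspase-3 for candidate inhibitors of sentrin-specific proteases (SENPs)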
T3 sequence (P42574 whole entry): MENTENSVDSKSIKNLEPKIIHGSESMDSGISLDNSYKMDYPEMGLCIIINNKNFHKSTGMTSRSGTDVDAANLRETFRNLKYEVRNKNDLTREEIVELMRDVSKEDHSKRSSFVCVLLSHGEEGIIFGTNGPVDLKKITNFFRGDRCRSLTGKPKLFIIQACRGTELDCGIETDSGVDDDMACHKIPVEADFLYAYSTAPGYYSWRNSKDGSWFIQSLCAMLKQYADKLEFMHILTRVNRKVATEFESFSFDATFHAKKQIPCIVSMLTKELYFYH

[5] = target: T4, Caspase-6 (Homo sapiens, UniProt P55212); assay: inhibition of CASP6 peptide cleavage – biochemical, VEID-R110 fluorescence, cherry-pick, dose response (AID 720632)
T4 sequence (P55212 whole entry): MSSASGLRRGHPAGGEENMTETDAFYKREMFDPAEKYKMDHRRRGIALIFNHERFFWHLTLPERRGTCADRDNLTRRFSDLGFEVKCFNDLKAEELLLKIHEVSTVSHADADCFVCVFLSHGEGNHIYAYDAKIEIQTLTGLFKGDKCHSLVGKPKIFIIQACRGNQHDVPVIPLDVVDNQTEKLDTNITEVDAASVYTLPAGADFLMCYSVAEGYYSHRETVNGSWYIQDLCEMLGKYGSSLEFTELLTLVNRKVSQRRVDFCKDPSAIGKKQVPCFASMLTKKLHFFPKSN

[6] = target: T2, Sentrin-specific protease 8; type: functional; remark: listed apart in the source
[7] = target: T5, Sentrin-specific protease 6 (Homo sapiens, UniProt Q9GZR1); type: functional;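 note: Luminescence-based dose-response confirmatory assay of SENP6 inhibition, following up an ultra-high-throughput screen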
T5 sequence (Q9GZR1 whole entry): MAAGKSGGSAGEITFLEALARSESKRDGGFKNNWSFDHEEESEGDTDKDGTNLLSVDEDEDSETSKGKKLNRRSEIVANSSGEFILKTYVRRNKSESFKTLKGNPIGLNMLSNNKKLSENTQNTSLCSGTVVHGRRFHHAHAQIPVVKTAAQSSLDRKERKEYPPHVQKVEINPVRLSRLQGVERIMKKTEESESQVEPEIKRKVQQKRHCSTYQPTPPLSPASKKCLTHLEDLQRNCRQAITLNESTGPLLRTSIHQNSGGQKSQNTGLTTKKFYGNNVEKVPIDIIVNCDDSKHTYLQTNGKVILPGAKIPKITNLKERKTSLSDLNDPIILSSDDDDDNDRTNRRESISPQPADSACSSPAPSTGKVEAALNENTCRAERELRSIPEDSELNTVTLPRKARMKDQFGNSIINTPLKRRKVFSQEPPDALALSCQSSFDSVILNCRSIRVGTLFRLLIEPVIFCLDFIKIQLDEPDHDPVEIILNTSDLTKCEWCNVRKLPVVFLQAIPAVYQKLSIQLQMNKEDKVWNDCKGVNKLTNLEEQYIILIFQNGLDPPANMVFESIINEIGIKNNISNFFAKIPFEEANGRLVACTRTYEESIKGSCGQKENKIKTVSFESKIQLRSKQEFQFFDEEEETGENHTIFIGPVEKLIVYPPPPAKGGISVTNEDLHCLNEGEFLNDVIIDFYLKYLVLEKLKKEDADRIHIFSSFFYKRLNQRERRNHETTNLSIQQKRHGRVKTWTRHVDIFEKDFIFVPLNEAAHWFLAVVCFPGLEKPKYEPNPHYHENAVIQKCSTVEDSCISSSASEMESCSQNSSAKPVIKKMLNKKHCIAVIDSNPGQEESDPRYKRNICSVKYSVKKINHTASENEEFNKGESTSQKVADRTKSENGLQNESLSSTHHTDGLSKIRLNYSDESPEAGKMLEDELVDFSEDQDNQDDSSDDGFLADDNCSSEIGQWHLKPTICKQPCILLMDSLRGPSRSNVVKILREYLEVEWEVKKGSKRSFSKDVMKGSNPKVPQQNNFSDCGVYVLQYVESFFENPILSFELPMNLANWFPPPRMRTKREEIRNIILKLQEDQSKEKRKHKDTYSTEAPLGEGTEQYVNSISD

[8] = target: Albumin (Bos taurus, UniProt P02769); assay: Counterscreen for inhibitors of T-cell receptor (TCR)-CD3 interaction: Fluorescence-based biochemical high throughput dose response assay to identify inhibitors of T-cell receptor (TCR)-CD3 interaction using a TAMRA-labeled BSA probe.; type: functional
Albumin, sequence (P02769 whole entry): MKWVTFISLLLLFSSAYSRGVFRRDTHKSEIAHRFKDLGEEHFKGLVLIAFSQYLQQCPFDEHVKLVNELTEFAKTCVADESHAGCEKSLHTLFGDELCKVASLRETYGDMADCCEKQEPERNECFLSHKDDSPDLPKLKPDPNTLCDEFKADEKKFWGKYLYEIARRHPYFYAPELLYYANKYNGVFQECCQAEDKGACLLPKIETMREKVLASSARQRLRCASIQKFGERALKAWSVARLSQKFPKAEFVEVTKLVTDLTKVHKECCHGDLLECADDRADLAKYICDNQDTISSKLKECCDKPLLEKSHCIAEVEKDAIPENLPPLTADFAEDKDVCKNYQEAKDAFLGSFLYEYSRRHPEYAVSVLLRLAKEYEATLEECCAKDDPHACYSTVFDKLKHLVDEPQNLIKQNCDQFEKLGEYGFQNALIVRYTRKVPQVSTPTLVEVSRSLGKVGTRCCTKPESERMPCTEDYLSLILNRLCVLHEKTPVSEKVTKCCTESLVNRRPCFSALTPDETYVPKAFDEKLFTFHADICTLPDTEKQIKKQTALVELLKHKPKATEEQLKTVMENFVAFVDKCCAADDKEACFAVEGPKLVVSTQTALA

[9] = cells; type: functional, cell-based
[10] = reduction of Shn3 3'UTR-driven luciferase in osteoblasts – cell-based, Clone20 osteoblasts, firefly luciferase, cherry-picked, dose response (AID 624132); type: functional;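 note: firefly luciferase luminescence from reporter carrying the Shn3 3'UTR in osteoblasts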
[11] = target: T6, RNA-binding protein pos-1 (Caenorhabditis elegans, UniProt G5EF15); assay: disruptors of C. elegans POS-1 RNA interaction – biochemical, fluorescence polarization, dose response (AID 1964);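 note: purified POS-1 fused to maltose binding protein made in E. coli; potency of compounds blocking POS-1 binding to fluorescent RNA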
T6 sequence (G5EF15 whole entry): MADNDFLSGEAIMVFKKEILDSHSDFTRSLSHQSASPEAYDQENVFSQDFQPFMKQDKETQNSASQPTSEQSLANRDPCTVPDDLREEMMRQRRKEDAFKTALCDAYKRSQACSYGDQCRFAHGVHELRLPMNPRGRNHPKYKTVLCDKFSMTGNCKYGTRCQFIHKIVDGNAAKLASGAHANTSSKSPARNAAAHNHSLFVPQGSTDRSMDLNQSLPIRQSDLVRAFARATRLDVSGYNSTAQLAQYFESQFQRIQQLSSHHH

[12] = target: T7, Zinc finger protein mex-5 (Caenorhabditis elegans, UniProt Q9XUB2); assay: potency of MEX-5 RNA-binding blockers – biochemical, C. elegans, fluorescence polarization, dose response (AID 1960)
T7 sequence (Q9XUB2 whole entry): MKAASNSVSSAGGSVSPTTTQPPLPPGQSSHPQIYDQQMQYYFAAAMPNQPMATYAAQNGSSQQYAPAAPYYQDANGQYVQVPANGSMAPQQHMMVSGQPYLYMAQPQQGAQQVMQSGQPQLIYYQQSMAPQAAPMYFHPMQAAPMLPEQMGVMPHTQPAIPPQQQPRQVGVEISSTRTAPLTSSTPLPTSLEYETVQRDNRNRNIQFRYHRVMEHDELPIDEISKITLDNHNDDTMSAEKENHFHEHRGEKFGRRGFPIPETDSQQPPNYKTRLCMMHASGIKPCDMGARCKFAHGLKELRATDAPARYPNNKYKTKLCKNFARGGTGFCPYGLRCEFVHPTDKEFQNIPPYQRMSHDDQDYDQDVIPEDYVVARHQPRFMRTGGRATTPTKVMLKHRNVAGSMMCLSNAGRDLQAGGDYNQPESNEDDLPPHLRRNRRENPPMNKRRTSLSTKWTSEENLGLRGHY

[13] = target: Large T antigen (Simian virus 40, UniProt P03070); type: functional, Betapolyomavirus macacae;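 note: Confirmatory-stage PubChem screen for compounds that inhibit SV40 T antigen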
Large T antigen, sequence (P03070 whole entry): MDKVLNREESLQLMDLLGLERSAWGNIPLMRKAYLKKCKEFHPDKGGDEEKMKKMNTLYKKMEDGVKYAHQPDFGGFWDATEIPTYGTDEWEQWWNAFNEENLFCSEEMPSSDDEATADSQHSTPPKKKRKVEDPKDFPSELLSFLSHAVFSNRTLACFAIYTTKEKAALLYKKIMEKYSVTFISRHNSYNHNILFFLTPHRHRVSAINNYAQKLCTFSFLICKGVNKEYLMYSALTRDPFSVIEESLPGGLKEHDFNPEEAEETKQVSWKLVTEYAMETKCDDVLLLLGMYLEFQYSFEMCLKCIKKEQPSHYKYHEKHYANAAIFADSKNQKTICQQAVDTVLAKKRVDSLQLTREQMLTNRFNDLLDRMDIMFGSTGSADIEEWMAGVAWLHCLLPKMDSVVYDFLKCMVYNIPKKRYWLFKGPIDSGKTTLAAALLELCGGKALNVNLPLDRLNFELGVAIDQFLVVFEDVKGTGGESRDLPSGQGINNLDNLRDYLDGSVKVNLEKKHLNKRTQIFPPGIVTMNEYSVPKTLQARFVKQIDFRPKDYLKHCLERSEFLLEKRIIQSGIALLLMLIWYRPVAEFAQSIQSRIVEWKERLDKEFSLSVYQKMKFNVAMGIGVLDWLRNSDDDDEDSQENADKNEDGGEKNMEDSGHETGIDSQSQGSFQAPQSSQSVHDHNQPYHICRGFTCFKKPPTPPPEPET

[14] = target: FAD-linked sulfhydryl oxidase ALR (Homo sapiens, UniProt P55789); assay: ALR-catalysed DTT oxidation blockers – biochemical, H2O2 detection, luminescence, cherry-pick, dose response (AID 493248)
FAD-linked sulfhydryl oxidase ALR, sequence (P55789 whole entry): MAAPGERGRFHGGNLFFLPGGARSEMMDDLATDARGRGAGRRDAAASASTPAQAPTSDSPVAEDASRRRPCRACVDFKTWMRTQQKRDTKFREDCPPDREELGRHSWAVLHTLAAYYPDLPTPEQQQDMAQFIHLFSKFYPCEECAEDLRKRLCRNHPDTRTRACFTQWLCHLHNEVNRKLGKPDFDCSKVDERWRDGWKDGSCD

[15] = cells; type: functional, cell-based; remark: listed apart in the source
[16] = non-specific 3'UTR reporter inhibition in Clone20-Shn3RL – cell-based, Renilla luciferase, cherry-picked, counter-screen for Shn3 inhibitor project, dose response (AID 624133); type: functional
[17] = blockers of bursicon-stimulated LGR2 cAMP reporter – cell-based, HEK293, CRE-luciferase reporter, cherry pick, set 2, dose response (AID 743343); type: functional;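 note: transfected cells were stimulated with diluted bursicon conditioned medium after compound addition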
[18] = viability loss in HEK293 cells – cell-based, plate reader, cherry-picked samples, cytotoxicity control, dose response (AID 743446); type: functional
[19] = blockade of melanocortin 4 receptor signaling – cell-based, plate reader, cherry pick, counter-screen for LGR2 antagonist project, dose response (AID 743444); type: functional;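 note: transfected HEK 293 cells stimulated with alpha-MSH peptide; potency of inhibitors of the alpha-MSH evoked signal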
[20] = HGIII-sPLA2 enzyme inhibition potency – biochemical, QFRET, IC50, dose response (AID 743457);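 note: green fluorescence rise as the enzyme cleaves BODIPY PC-A2 in liposomes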

SMILES: Cc1ccccc1C(=O)NNC(=S)NC(=O)c1cccnc1
IC50 [8]: > 94.1 µM (inactive)

SMILES: Cc1ccn2cc(-c3ccc(O)c(O)c3)nc2c1
EC50 [9]: > 350 µM (not active) | AC50 [10]: 2.44 µM (active) | EC50 [11]: 38 µM (active) | EC50 [12]: 6.88 µM (active) | IC50 [8]: > 94.1 µM (inactive) | IC50 [13]: 12.9 µM (active) | AC50 [14]: 0.558 µM (active) | EC50 [15]: 6.58 µM (active) | AC50 [16]: 13 µM (active)

SMILES: Cc1ccc(-c2nc(-c3ccccn3)no2)cc1[N+](=O)[O-]
AC50 [17]: 4.31 µM (active) | AC50 [18]: > 52 µM (inactive) | AC50 [19]: 14.9 µM (active)

More lines, main results first:

IC50 [1]: 23.8 µM (active) | IC50 [4]: 3.55 µM (active) | AC50 [5]: 27.4 µM (active) | IC50 [7]: 8.06 µM (active)
SMILES: Cc1ccccc1N1C(=O)Cc2ccccc2C1=O
IC50 [2]: 3.22 µM (active) | IC50 [3]: > 100 µM (inactive) | IC50 [6]: 45.7 µM (active)

IC50 [20]: > 122 µM (inactive) | IC50 [8]: > 94.1 µM (inactive)
SMILES: O=C(NNC(=O)c1ccc2ccccc2c1O)Nc1ccc(F)cc1
